O=C(O)CC(S)C(=O)O (stereo not drawn)
solubility (mole fraction)
Settings | in acetone | in acetonitrile | in ethanol | in ethyl acetate | in isopropanol | in methanol | in n-butanol
278.15 K | 0.133 | 0.0114 | 0.138 | 0.0454 | 0.1 | 0.117 | 0.0909
283.15 K | 0.142 | 0.0159 | 0.154 | 0.0482 | 0.112 | 0.136 | 0.105
288.15 K | 0.149 | 0.0212 | 0.169 | 0.0515 | 0.126 | 0.157 | 0.118
293.15 K | 0.159 | 0.0296 | 0.186 | 0.0547 | 0.141 | 0.178 | 0.134
298.15 K | 0.168 | 0.0392 | 0.205 | 0.0595 | 0.156 | 0.203 | 0.153
303.15 K | 0.178 | 0.0513 | 0.224 | 0.0634 | 0.174 | 0.228 | 0.172
308.15 K | 0.19 | 0.0656 | 0.244 | 0.068 | 0.192 | 0.256 | 0.192
313.15 K | 0.202 | 0.0853 | 0.265 | 0.0732 | 0.212 | 0.285 | 0.213
318.15 K | 0.213 | 0.108 | 0.287 | 0.0787 | 0.233 | 0.314 | 0.236
323.15 K | 0.226 | 0.135 | 0.31 | 0.0849 | 0.256 | 0.345 | 0.261
328.15 K | 0.24 | 0.168 | 0.335 | 0.0915 | 0.28 | 0.379 | 0.286
333.15 K | – | 0.206 | 0.361 | 0.0991 | 0.305 | 0.412 | 0.313

Reference: BigSolDB 2.1
